# “Also recorded” adds a separate entry of the source. Like-named read-outs stand apart in the source and are kept apart here. Peptide text beside a SMILES is read from it. * marks the point of attachment. Cbz = O=C(OCc1ccccc1)*; CHN2 = [N-]=[N+]=C*
# What was measured:
# cathepsin = experiment: Cathepsin enhancement and synaptic marker recovery in a protein accumulation model; type: cell-based
# Excerpt: Increased lysosomal enzyme activities are an indicator of cellular responses aimed at compensating for accumulating material. Evidence of compensatory up-regulation of lysosomal enzymes in response to lysosome stress and protein accumulation has led to the identification of a pharmacological avenue for promoting such responses. This pharmacological avenue has been used to identify and synthesize the compounds described herein, which are effective as lysosomal modulators. The base structures of PADK and Z-Phe-Phe-diazomethylketone (PPDK) were used for the design of new lysosomal modulators because PADK and PPDK enhance cathepsin levels at 0.3-10 μM, resulting in 70-80% recovery of synaptic markers that were lost in a protein accumulation model. Other modulators, including diazoacetyl-DL-2-aminohexanoic acid methyl ester, require up to 30 μM to produce neuroprotective effects, but result in only 24-42% synaptic recovery.
# cathepsin D = experiment: Cathepsin D up-regulation in hippocampal slice cultures (immunoblot); type: cell-based; settings: for EC50: increase of cathepsin D levels, slices treated daily for 3-6 days; for potency of increasing cathepsin D levels (in words) / EC2-fold (concentration needed for a 2-fold increase in cathepsin levels): hippocampal slice cultures; for potency of increasing cathepsin D levels (in words): treated daily 3-6 days
# Experimental: The cultured slices were treated daily with different modulator concentrations for 3-6 days. […] BW1001 was not tested further due to its low potency.
# The hippocampal slices were maintained in culture for 10-12 days to stabilize, then were treated daily with different modulator concentrations for 3 days. Then they were harvested rapidly in ice-cold buffer and homogenized in the presence of protease inhibitors.
# Equal protein aliquots of the slice samples were subjected to immunoblotting to label the proform and the active form of cathepsin D (CD). FIG. 3A is an immunoblot showing PADK induced increases in the proform and active form of cathepsin D in hippocampal slice cultures. FIG. 3B is a graph showing the dose-dependent up-regulation of cathepsin D in hippocampal slice cultures by PADK and by BW1002.
# Slices were treated daily for 3 days with 10 μM compound, then harvested rapidly for immunoblot assessment of active CD levels (ANOVA: P<0.0001). FIG. 5 is a bar graph showing the results of these tests. The data in FIG. 5 indicate that the non-peptide lysosomal modulators provide potent lysosomal modulation that enhances clearance of pathogenic accumulations. All data represent means±SEM.
# [1] = test system: pre- and postsynaptic markers; experiment: Synaptic marker assessment in treated slice cultures
# Experimental: (§4) Potential toxicity was tested by assessing synaptic markers and subjecting media samples from the treated slice cultures to a standard LDH assay.
# [2] = test system: hippocampal slice cultures; experiment: LDH assay on media of treated slice cultures; settings: for LDH release: media samples from treated slice cultures
# Experimental: as §4
# [3] = test system: pre- and postsynaptic markers
# Experimental: as §4
# [4] = test system: hippocampal slice cultures
# Experimental: as §4
# [5] = test system: PDGF-APPSwInd transgenic mice; experiment: Synaptic protection in PDGF-APPSwInd transgenic mice (GluR1); type: in vivo; settings: daily i.p.; BW1005 45 mg/kg, BW1002 25 mg/kg
# Experimental: Modulator BW1005, was administered daily i.p. into an Alzheimer's Disease model —PDGF-APPSwInd transgenic mice. The transgenic mice are hemizygotes for a mutant form of the human APP gene containing both the Swedish (K670N/M671L) and the Indiana (V717F) mutations (APPSwInd). […] Based on its potency in relation to PADK's effect in slices and mice, BW1005 was injected i.p. daily at a dose of 45 mg/kg.
# The brains of the mice were dissected and assessed for the postsynaptic marker GluR1. […] FIG. 7 is a bar graph showing the mean GluR1 measure ±SEM for each group studied (post hoc test: p=0.05). […] Changes in cathepsin levels may explain the synaptic protection.
# cathepsin B = experiment: In vivo lysosomal modulation by PADK in mice
# Experimental: The enhanced cathepsin staining was evident in many brain regions and co-localized with the lysosomal marker LAMP-1.
# (§1) The modulator PADK up-regulates cathepsins without causing adverse effects. Hippocampal homogenates were assessed for the mice. FIGS. 6A-D are graphs showing the effects of PADK doping on various biological and physical attributes of 10 month old mice.
# (§2) FIG. 6D is a graph showing the results of motor skills and spatial memory tests. Motor skills and coordination were assessed using a variable-speed rotating rod and measuring the time the animal could remain moving on the rod. Spatial memory was tested with a conditions place preference (CPP) North-South paradigm in which the animal must remember where a previous reward was presented. Thus, the lysosomal modulation occurred in the absence of any evident effects on liver/kidney integrity, blood urea levels, or on normal brain functionality.
# APPswe/PS1ΔE9 mice = experiment: Spontaneous alternation behavior in a T-maze, APPswe/PS1ΔE9 mice; type: in vivo
# Experimental: (§3) The improvement of synaptic integrity by PADK was also associated with the reduction of behavioral deficits in the mouse models. FIG. 9C is a bar graph showing rotorod performance for several groups of mice. […] FIG. 9D is a bar graph illustrating spontaneous alternation behavior in the second type of Alzheimer's mouse model (APPswe/PS1ΔE9). APPswe/PS1ΔE9 mice treated with vehicle or PADK were tested on the hippocampal-dependent task of spontaneous alternation behavior in a T-maze. The mice were allowed to explore starting from the intersection of a T-maze, and were monitored for the order of entries into the three arms (arms A, B, and C). In control mice, every third explored arm is usually different than the previous two (e.g., A-B-C, B-A-C, etc.; the third decision being an alternation). Alzheimer's mice, on the other hand, frequently go back into one of the previous two arms explored (e.g., A-B-A, C-B-B), thus reducing the percent alternations. […] Open field mobility assessment confirmed no change in exploratory mobility across the different groups of mice.
# [6] = test system: human paired helical filaments (PHFs); experiment: Chloroquine-induced hippocampal slice model of protein accumulation, PHF immunostaining; type: cell-based; settings: 6 days chloroquine, then 3 μM for 2 days
# Excerpt: FIGS. 2A-C are immunostains of hippocampal slice cultures for human paired helical filaments (PHFs). The pathogenic PHF was undetectable in control tissue, FIG. 2A, whereas cellular accumulation of PHF was evident after 6 days of chloroquine treatment followed by 2 days of washout, FIG. 2B. […] Size bar: 16 μm.
# [7] = test system: APPSwInd and APPswe/PS1ΔE9 mice; experiment: Synaptic markers in APPSwInd and APPswe/PS1ΔE9 mice treated with PADK; type: in vivo; settings: two Alzheimer's mouse models, immunoblot of homogenates
# Experimental: To compare the BW1002/1005 results to previous PADK work, homogenate samples were analyzed by immunoblot for the presynaptic protein synapsin II and postsynaptic glutamatergic marker GluR1.
# [8] = Adverse-effect assessment of PADK dosing in 10 month old mice; type: in vivo
# Experimental: as §1, §2
# APPSwInd mice = experiment: Rotarod performance of APPSwInd mice; type: in vivo; settings: trials on the 8th and 9th injection days
# Experimental: as §3
# cathepsins B and D = settings: in vivo; cited from earlier work
smiles,measurement,setting,value
CCCCC(NC(=O)C=[N+]=[N-])C(=O)OC (racemic) [diazoacetyl-DL-2-aminohexanoic acid methyl ester],concentration required to produce neuroprotective effects,cathepsin,up to 30 μM
"O=C(NC(Cc1ccccc1)[C@H](O)CNCc1ccccc1)OCc1ccccc1 (stereo partly drawn) [BW1001, (2R,3S)-3-Cbz amino-2-hydroxy-4-phenyl-1-benzyl amino butane]",EC50,cathepsin D,20 µM
"CC(=O)N(Cc1ccccc1)C[C@@H](O)C(Cc1ccccc1)NC(=O)OCc1ccccc1 (stereo partly drawn) [BW1002, (2R,3S)-3-Cbz amino-2-hydroxy-4-phenyl-1-(N-benzylacetamido) butane]",synaptic decline (pre- and postsynaptic markers),[1],did not cause synaptic decline or LDH release
same,EC50,cathepsin D,3 µM
same,LDH release,[2],did not cause synaptic decline or LDH release
"[N-]=[N+]=CC(=O)N(Cc1ccccc1)C[C@@H](O)[C@H](Cc1ccccc1)NC(=O)OCc1ccccc1 [BW1003, (2R,3S)-3-Cbz amino-2-hydroxy-4-phenyl-1-(N-benzyl-2-diazo-ethanamido) butane]",synaptic decline (pre- and postsynaptic markers),[1],caused evident synaptic decline
same,EC50,cathepsin D,2 µM
same,LDH release as % of maximal LDH release produced by total cellular disruption (1% TX-100),[2]; after 6 days of treatment,< 2%
same,LDH release,[2],time-dependent increase in LDH activity
"CC(=O)N(Cc1cccc2ccccc12)C[C@@H](O)[C@H](Cc1ccccc1)NC(=O)OCc1ccccc1 [BW1004, (2R,3S)-3-Cbz amino-2-hydroxy-4-phenyl-1-(N-naphthylmethylethanamido) butane]",potency of increasing cathepsin D levels (in words),cathepsin D,potencies at or near that of PADK
same,EC50,cathepsin D,20 µM
same,synaptic decline (pre- and postsynaptic markers),[3],did not produce evident toxicity
same,LDH release,[4],did not produce evident toxicity
"O=C(NC(Cc1ccccc1)[C@H](O)CN(Cc1ccccc1)C(=O)c1ccccc1)OCc1ccccc1 (stereo partly drawn) [BW1005, (2R,3S)-3-Cbz amino-2-hydroxy-4-phenyl-1-(N-benzylbenzamide) butane]",synaptic decline (pre- and postsynaptic markers),[1],did not cause synaptic decline or LDH release
same,potency of increasing cathepsin D levels (in words),cathepsin D,potencies at or near that of PADK
same,EC50,cathepsin D,15 µM
same,synaptic protection: postsynaptic marker GluR1 in brain,[5],significant synaptic protection; also recorded: greater than that provided by PADK
same,LDH release,[2],did not cause synaptic decline or LDH release
"C[C@H](NC(=O)[C@H](Cc1ccccc1)NC(=O)OCc1ccccc1)C(=O)C=[N+]=[N-] [PADK, Z-Phe-Ala-diazomethylketone]",immunostaining for the active form of cathepsin B in hippocampal cells,"cathepsin B; 10-12-month old mice, 9 daily i.p. injections",dramatic increase in immunostaining
same,cathepsin levels in hippocampal homogenates,"cathepsin B; 10 month old mice, across different dosages",dose-dependent increases in cathepsin levels
same,synaptic decline (pre- and postsynaptic markers),[1],did not cause synaptic decline or LDH release
same,spontaneous alternations,APPswe/PS1ΔE9 mice,significantly improved alternations
same,EC2-fold (concentration needed for a 2-fold increase in cathepsin levels),cathepsin D,3.2 µM
same,EC50,cathepsin D; unit μm [sic],10 µM
same,proform and active form of cathepsin D,"cathepsin D; slices treated daily for 3 days, immunoblot",increased
same,clearance of chloroquine-induced PHF deposits in CA1 neurons,[6],clearance of most neuronal deposits of PHF material
same,GluR1 deficit,[7],significantly reduced the GluR1 deficit
same,ALT (damage to liver function),[8],no change in either ALT or BUN
same,BUN (kidney compromise),[8],no change in either ALT or BUN
same,adverse effects on synaptic markers GluR1 and synaptophysin,[8],No adverse effects were evident
same,motor skills and coordination (variable-speed rotating rod),[8],"did not impair motor skills, coordination, or spatial memory"
same,spatial memory (CPP North-South paradigm),[8],"did not impair motor skills, coordination, or spatial memory"
same,LDH release,[2],did not cause synaptic decline or LDH release
same,Rotarod performance across trials,APPSwInd mice,enabled the APPSwInd mice to improve across Rotarod trials
same,rat brain levels of cathepsins B and D,cathepsins B and D,significant increases
"[N-]=[N+]=CC(=O)[C@H](Cc1ccccc1)NC(=O)[C@H](Cc1ccccc1)NC(=O)OCc1ccccc1 [PPDK, Z-Phe-Phe-diazomethylketone] (Cbz-Phe-Phe-CHN2)",EC2-fold (concentration needed for a 2-fold increase in cathepsin levels),cathepsin D,~5 µM
same,EC50,cathepsin D; unit μm [sic],14 µM
